Assay results reported in ChEMBL document CHEMBL1153141, “Anti-tumor activity of a new series of benzoxazepine derivatives in breast cancer” (Bioorg Med Chem Lett, 2010).
Counter-ions that a name gives are not always drawn. Activity calls are given as the source filed them. The rule behind the calls is not given here.

How the values were obtained:
DU-145 = assay: Cytotoxicity against human DU145 cells after 18 hrs by MTT assay; format: functional, cell-based; settings: DU-145, 18 h
MDA-MB-231 = assay: Cytotoxicity against human MDA-MB-231 cells after 18 hrs by MTT assay; format: functional, cell-based; settings: MDA-MB-231, 18 h
Ishikawa = assay: Cytotoxicity against human Ishikawa cells after 18 hrs by MTT assay; format: functional, cell-based
MCF7 [1] = assay: Cytotoxicity against human MCF7 cells after 18 hrs by MTT assay; format: functional, cell-based; settings: MCF7, 18 h
HEK293 = assay: Cytotoxicity against HEK293 cells after 18 hrs by MTT assay; format: cell-based; settings: human, hek293, 18 h
MCF7 [2] = assay: Antitumor activity against human MCF7 cells xenografted in mouse assessed as tumor volume regression at 8 to 16 mg/kg, po for 30 days; format: functional, organism-based
MCF7 [3] = assay: Induction of apoptosis in human MCF7 cells at 5 to 10 uM after 24 hrs using annexin V-propidium iodide staining by flow cytometry relative to control; format: functional, cell-based
MCF7 [4] = assay: Cell cycle arrest in human MCF7 cells assessed as accumulation at G0/G1 phase at 5 to 10 uM after 24 hrs using […] by flow cytometry relative to control; format: functional, cell-based

COc1ccc2c(c1)OC[C@H](Cc1ccc(OCCN(C)C)cc1)N(S(=O)(=O)c1ccc(C)cc1)C2
IC50 (DU-145): > 50 µM
IC50 (MDA-MB-231): > 50 µM
IC50 (Ishikawa): > 50 µM
IC50 (MCF7 [1]): > 50 µM

COc1cccc2c1OC[C@H](Cc1ccc(OCCN(C)C)cc1)N(S(=O)(=O)c1ccc(C)cc1)C2
IC50 (DU-145): > 50 µM
IC50 (MDA-MB-231): > 50 µM
IC50 (Ishikawa): > 50 µM
IC50 (MCF7 [1]): > 50 µM

COc1ccc2c(c1)OC[C@H](Cc1ccc(OCCN3CCCCC3)cc1)N(S(=O)(=O)c1ccc(C)cc1)C2
IC50 (DU-145): > 50 µM
IC50 (MDA-MB-231): > 50 µM
IC50 (Ishikawa): > 50 µM
IC50 (MCF7 [1]): > 50 µM

Cc1ccc(S(=O)(=O)N2Cc3ccccc3OC[C@@H]2Cc2ccc(OCCN3CCCC3)cc2)cc1
IC50 (DU-145): 30 µM
IC50 (MDA-MB-231): 13 µM
IC50 (Ishikawa): 23.8 µM
Activity (HEK293): Non-toxic
IC50 (MCF7 [1]): 9.34 µM

CCN(CC)CCOc1ccc(C[C@H]2COc3c(cccc3OC)CN2S(=O)(=O)c2ccc(C)cc2)cc1
IC50 (DU-145): > 50 µM
IC50 (MDA-MB-231): > 50 µM
IC50 (Ishikawa): > 50 µM
IC50 (MCF7 [1]): > 50 µM

COc1cccc2c1OC[C@H](Cc1ccc(OCCN3CCCCC3)cc1)N(S(=O)(=O)c1ccc(C)cc1)C2
IC50 (DU-145): > 50 µM
IC50 (MDA-MB-231): > 50 µM
IC50 (Ishikawa): > 50 µM
IC50 (MCF7 [1]): > 50 µM

Cc1ccc(S(=O)(=O)N2Cc3ccccc3OC[C@@H]2C(C)C)cc1
IC50 (DU-145): > 50 µM
IC50 (MDA-MB-231): > 50 µM
IC50 (Ishikawa): > 50 µM
IC50 (MCF7 [1]): > 50 µM

COc1ccc2c(c1)OC[C@H](Cc1ccc(OCCN3CCOCC3)cc1)N(S(=O)(=O)c1ccc(C)cc1)C2
IC50 (DU-145): > 50 µM
IC50 (MDA-MB-231): > 50 µM
IC50 (Ishikawa): > 50 µM
IC50 (MCF7 [1]): > 50 µM

CCN(CC)CCOc1ccc(C[C@H]2COc3ccccc3CN2S(=O)(=O)c2ccc(C)cc2)cc1
IC50 (DU-145): 23 µM
IC50 (MDA-MB-231): 17.4 µM
Activity (MCF7 [2]): Active
IC50 (Ishikawa): 22.6 µM
Activity (MCF7 [3]): Active
Activity (MCF7 [4]): Active
IC50 (MCF7 [1]): 6.53 µM

Cc1ccc(S(=O)(=O)N2Cc3ccccc3OC[C@@H]2Cc2c[nH]c3ccccc23)cc1
IC50 (DU-145): > 50 µM
IC50 (MDA-MB-231): > 50 µM
IC50 (Ishikawa): > 50 µM
IC50 (MCF7 [1]): > 50 µM

CC/C(=C(\c1ccccc1)c1ccc(OCCN(C)C)cc1)c1ccccc1 [TAMOXIFEN CITRATE]
IC50 (DU-145): 15.2 µM
IC50 (MDA-MB-231): 12.3 µM
IC50 (Ishikawa): 12.5 µM
IC50 (MCF7 [1]): 10.2 µM

COc1cccc2c1OC[C@H](Cc1ccc(OCCN3CCCCCC3)cc1)N(S(=O)(=O)c1ccc(C)cc1)C2
IC50 (DU-145): > 50 µM
IC50 (MDA-MB-231): > 50 µM
IC50 (Ishikawa): > 50 µM
IC50 (MCF7 [1]): > 50 µM

COc1cccc2c1OC[C@H](Cc1ccc(OCCN3CCCC3)cc1)N(S(=O)(=O)c1ccc(C)cc1)C2
IC50 (DU-145): > 50 µM
IC50 (MDA-MB-231): > 50 µM
IC50 (Ishikawa): > 50 µM
IC50 (MCF7 [1]): > 50 µM

COc1ccc2c(c1)OC[C@H](Cc1ccc(OCCN3CCCC3)cc1)N(S(=O)(=O)c1ccc(C)cc1)C2
IC50 (DU-145): > 50 µM
IC50 (MDA-MB-231): > 50 µM
IC50 (Ishikawa): > 50 µM
IC50 (MCF7 [1]): > 50 µM

Cc1ccc(S(=O)(=O)N2Cc3ccccc3OC[C@@H]2C)cc1
IC50 (DU-145): > 50 µM
IC50 (MDA-MB-231): > 50 µM
IC50 (Ishikawa): > 50 µM
IC50 (MCF7 [1]): > 50 µM

CCC(C)[C@H]1COc2ccccc2CN1S(=O)(=O)c1ccc(C)cc1 (stereo partly specified)
IC50 (DU-145): > 50 µM
IC50 (MDA-MB-231): > 50 µM
IC50 (Ishikawa): > 50 µM
IC50 (MCF7 [1]): > 50 µM

COc1cccc2c1OC[C@H](Cc1ccc(OCCN3CCOCC3)cc1)N(S(=O)(=O)c1ccc(C)cc1)C2
IC50 (DU-145): > 50 µM
IC50 (MDA-MB-231): > 50 µM
IC50 (Ishikawa): > 50 µM
IC50 (MCF7 [1]): > 50 µM

Cc1ccc(S(=O)(=O)N2Cc3ccccc3OC[C@@H]2Cc2ccccc2)cc1
IC50 (DU-145): > 50 µM
IC50 (MDA-MB-231): > 50 µM
IC50 (Ishikawa): > 50 µM
IC50 (MCF7 [1]): > 50 µM

Cc1ccc(S(=O)(=O)N2Cc3ccccc3OC[C@H]2Cc2ccccc2)cc1
IC50 (DU-145): > 50 µM
IC50 (MDA-MB-231): > 50 µM
IC50 (Ishikawa): > 50 µM
IC50 (MCF7 [1]): > 50 µM

Cc1ccc(S(=O)(=O)N2Cc3ccccc3OCC2Cc2ccc(OCCN3CCOCC3)cc2)cc1 (stereo unspecified)
IC50 (DU-145): > 50 µM
IC50 (MDA-MB-231): > 50 µM
IC50 (Ishikawa): > 50 µM
IC50 (MCF7 [1]): > 50 µM

Cc1ccc(S(=O)(=O)N2Cc3ccccc3OC[C@@H]2CC(C)C)cc1
IC50 (DU-145): > 50 µM
IC50 (MDA-MB-231): > 50 µM
IC50 (Ishikawa): > 50 µM
IC50 (MCF7 [1]): > 50 µM

Cc1ccc(S(=O)(=O)N2Cc3ccccc3OC[C@@H]2Cc2ccc(O)cc2)cc1
IC50 (MDA-MB-231): > 50 µM
IC50 (Ishikawa): 34 µM
IC50 (MCF7 [1]): 29.1 µM
